Reference: US8324177B2, “Triterpene compositions and methods for use thereof” (Research Development Foundation, priority 1998, dated 2012)

Test system: poly (ADP-ribose) polymerase (PARP) cleavage in Jurkat cells
Test: Immunoblot analysis of PARP degradation
Format: cell-based, human
Details: 100 μM, 1 h pretreatment
Experimental: Apoptosis induced by F035 & D1 was examined by proteolytic cleavage of poly (ADP-ribose) polymerase (PARP). Jurkat cells (2×10^6/ml) were treated with F035 (2 μg/ml) and D1 (2 μg/ml) for different lengths of time. Cell lysates were prepared in buffer containing 20 mM HEPES, 250 mM NaCl, 2 mM EDTA, 0.1% NP-40, 2 μg/ml leupeptin, 2 μg/ml aprotinin, 0.5 μg/ml benzamidine, 1 mM DTT and 1 mM PMSF. Cellular proteins (60 μg/ml) were separated on a 7.5% SDS polyacrylamide gel and electrotransferred onto a nitrocellulose membrane. The membrane was probed first with monclonal anti-PARP antibody (PharMingen) and then with anti-mouse antibody conjugated to horse radish peroxidase (HRPO). Protein bands were detected by chemiluminescense (ECL, Amersham). The extent of cleavage of the 116-kDa PARP into 85-kDa and 41-kDa peptide products was used as a measure of apoptosis (Tewari et al., 1995).

z-vad fmk
Effect on F035 induced cleavage of PARP (in words): completely reversed
